Target: T1, type H3 central histamine receptors (Mus musculus, UniProt P58406)
T1 construct: from tissue
Assay: Cerebral dosages of N^t-methylhistamine in the NMRI mouse (ex vivo, RIA)
Details: NMRI mice, brain one hour after treatment, versus carrier controls
Protocol: The purpose of this study, which was carried out in accordance with the method of Taylor et al. (Biochem. […] An increase in the cerebral concentrations of N^t-methylhistamine indicates an increase in the turn-over of histamine by blockage of the type H3 central histamine receptors. […] One hour after the pharmacological treatment, the animals are sacrificed, and their brains are removed, frozen in liquid nitrogen, weighed and homogenised in 0.1N HClO4 at 4° C. […] The supernatants are recovered and divided into aliquots. The aliquots are frozen in liquid nitrogen and stored at −80° C. until analysis. Determination of the cerebral levels of N^t-methylhistamine is carried out by radioimmunological assay (RIA) using an assay kit. The tissue levels of N^t-methylhistamine are expressed in μg/g of fresh brain. The comparison of the cerebral levels of N^t-methylhistamine between animals treated with the carrier (controls) and animals treated with compounds of the present invention is carried out by single factor variance analysis followed, if necessary, by a complementary analysis (Dunnett test).

T1 sequence (P58406 whole entry): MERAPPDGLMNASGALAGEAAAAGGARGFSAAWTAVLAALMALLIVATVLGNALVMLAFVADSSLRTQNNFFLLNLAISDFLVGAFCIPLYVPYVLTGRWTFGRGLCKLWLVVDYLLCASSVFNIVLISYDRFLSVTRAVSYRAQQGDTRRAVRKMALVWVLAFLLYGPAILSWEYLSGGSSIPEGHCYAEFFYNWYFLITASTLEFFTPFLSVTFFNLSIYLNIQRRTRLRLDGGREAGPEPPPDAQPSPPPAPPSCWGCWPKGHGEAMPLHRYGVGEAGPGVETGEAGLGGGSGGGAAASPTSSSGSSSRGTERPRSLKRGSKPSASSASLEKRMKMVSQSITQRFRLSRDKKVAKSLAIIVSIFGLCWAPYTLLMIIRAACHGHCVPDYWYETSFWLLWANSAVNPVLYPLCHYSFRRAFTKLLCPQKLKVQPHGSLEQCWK

Row | SMILES | increase in endogenous cerebral concentrations of N^t-methylhistamine (30 mg/kg IP) [%] | other results
1 | N#Cc1ccc(OCCCN2CCN3CCCCC3C2)cc1.O=C(O)/C=C/C(=O)O.O=C(O)/C=C/C(=O)O (single isomer, unassigned) [Example 58, 4-(3-octahydro-2H-pyrido[1,2-a]pyrazin-2-ylpropoxy)benzonitrile difumarate, enantiomer β] |  | increase in endogenous cerebral concentrations of N^t-methylhistamine (10 mg/kg IP, 10 mg/kg): 236%
2 | Cl.Cl.Cl.c1ccc2c(c1)ncn2CCCCN1CCN2CCCCC2C1 (stereo not shown) [Example 53, 2-[4-(1H-Benzimidazol-1-yl)butyl]octahydro-2H-pyrido[1,2-a]pyrazine trihydrochloride] | 89 | 
3 | Cl.Cl.c1ccc2c(c1)cnn2CCCCN1CCN2CCCCC2C1 (stereo not shown) [Example 55, 2-[4-(1H-Indazol-1-yl)butyl]octahydro-2H-pyridol[1,2-a]pyrazine dihydrochloride] | 124 | 
4 | N#Cc1ccc(OCCCN2CCN3CCCCC3C2)cc1.O=C(O)/C=C/C(=O)O.O=C(O)/C=C/C(=O)O (stereo not shown) [Example 56, 4-(3-Octahydro-2H-pyrido[1,2-a]pyrazin-2-ylpropoxy)benzonitrile difumarate] |  | increase in endogenous cerebral concentrations of N^t-methylhistamine (10 mg/kg IP, difumarate, 10 mg/kg): 252%
